Data from patent US7186803B2, “Human vanilloid receptor VR3 protein” (Ortho-McNeil Pharmaceutical, Inc., priority 2000, dated 2007).
“Also recorded” adds a separate entry of the source.

Key:
[1] = target: T1, human VR3 A+B+ (Homo sapiens, UniProt Q9HBA0); test: Two-electrode voltage clamp of Xenopus oocytes injected with VR3 A+B+ cRNA, challenged with ligands; format: cell-based; set-up: key: NE: no effect; conditions: VR3 A+B+ 5 ng injected per oocyte
T1 construct: expressed in transfected cells; host or cells: Xenopus laevis oocytes injected with in vitro transcribed cRNA
T1 sequence (Q9HBA0 with tags, fused parts or gaps): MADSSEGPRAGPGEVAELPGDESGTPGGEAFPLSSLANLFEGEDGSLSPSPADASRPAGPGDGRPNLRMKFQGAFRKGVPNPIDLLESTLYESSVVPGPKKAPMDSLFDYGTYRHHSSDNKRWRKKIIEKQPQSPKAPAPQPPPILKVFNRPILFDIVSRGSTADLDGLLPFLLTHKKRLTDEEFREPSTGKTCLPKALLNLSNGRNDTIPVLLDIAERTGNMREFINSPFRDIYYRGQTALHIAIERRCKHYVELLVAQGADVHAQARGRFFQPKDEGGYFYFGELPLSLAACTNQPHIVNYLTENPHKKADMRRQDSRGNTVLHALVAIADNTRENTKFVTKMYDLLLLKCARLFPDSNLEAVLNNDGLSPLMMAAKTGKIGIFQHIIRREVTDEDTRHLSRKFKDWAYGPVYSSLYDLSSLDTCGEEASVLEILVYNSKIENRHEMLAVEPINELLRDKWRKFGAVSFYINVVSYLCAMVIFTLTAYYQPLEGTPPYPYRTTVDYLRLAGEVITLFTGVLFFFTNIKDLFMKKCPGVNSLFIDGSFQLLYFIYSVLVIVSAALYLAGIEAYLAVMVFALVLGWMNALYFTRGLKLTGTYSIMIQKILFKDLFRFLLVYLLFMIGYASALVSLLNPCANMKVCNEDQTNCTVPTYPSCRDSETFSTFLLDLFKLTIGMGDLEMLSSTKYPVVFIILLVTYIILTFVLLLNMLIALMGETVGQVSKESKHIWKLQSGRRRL
Experimental: (§1) Xenopus laevis oocytes were prepared and injected using standard methods previously described and known in the art (Fraser et al., 1993). Ovarian lobes from adult female Xenopus laevis (Nasco, Fort Atkinson, Wis.) were teased apart, rinsed several times in nominally Ca-free saline containing: 82.5 mM NaCl, 2.5 mM KCl, 1 mM MgCl2, 5 mM HEPES, adjusted to pH 7.0 with NaOH (OR-2), and gently shaken in OR-2 containing 0.2% collagenase Type 1 (ICN Biomedicals, Aurora, Ohio) for 2–5 hours. When approximately 50% of the follicular layers were removed, Stage V and VI oocytes were selected and rinsed in media consisting of 75% OR-2 and 25% ND-96. The ND-96 contained: 100 mM NaCl, 2 mM KCl, 1 mM MgCl2, 1.8 mM CaCl2, 5 mM HEPES, 2.5 mM Na pyruvate, gentamicin (50 ug/ml), adjusted to pH 7.0 with NaOH. […] For in vitro transcription, pGEM HE (Liman et al., 1992) containing human VR3 was linearized with NheI and transcribed with T7 RNA polymerase (Promega) in the presence of the cap analog m7G(5′)ppp(5′)G. The synthesized cRNA was precipitated with ammonium acetate and isopropanol, and resuspended in 50 μl nuclease-free water. cRNA was quantified using formaldehyde gels (1% agarose, 1×MOPS , 3% formaldehyde) against 1,2 and 5 μl RNA markers (Gibco BRL, 0.24–9.5 Kb).
(§2) Oocytes were injected with 50 nl of the human VR3 receptor RNA (0.3–5 ng) with or without co-injection of VR1 (2–3 ng). Control oocytes were injected with 50 nl of water. Oocytes were incubated for 1–13 days in ND-96 before analysis for expression of the human VR3. Incubations and collagenase digestion were carried out at room temperature. Injected oocytes were maintained in 48 well cell culture clusters (Costar; Cambridge, Mass.) at 18° C. Whole cell agonist-induced currents were measured 1–14 days after injection with a conventional two-electrode voltage clamp (GeneClamp500, Axon Instruments, Foster City, Calif.) using standard methods previously described and known in the art (Dascal, 1987). The microelectrodes were filled with 3 M KCl, which had resistances of 1 and 2 MΩ. Cells were continuously perfused with ND96 at ˜10 ml/min at room temperature unless indicated. Membrane voltage was clamped at −70 mV unless indicated.
(§3) Oocytes were challenged with a variety of ligands, low pH, and depolarizing as well as hyperpolarizing voltage steps but there were no detectable differences in membrane conductance between human VR3-expressing oocytes and control oocytes [see Table 1]. However, human VR3 injected oocytes had properties that were different from controls in 4 respects. First, injection of VR3 A+B− cRNA caused oocytes to die. […] Second, all three isoforms of VR3 enhanced the heat-induced response (FIG. 10). Third, A+B− co-injection with human VR1 produced a ruthenium red sensitive perfusion-induced current (Iperfusion) (FIG. 11).

[2] = target: T2, human VR1 together with human VR3 A+B− (Homo sapiens, UniProt Q8NER1); test: Capsaicin induced currents in oocytes expressing human VR1 with human VR3 A+B−; format: cell-based; conditions: 1 uM capsaicin; VR1 and VR3 A+B− cRNA at equal ratios (2.9 ng each); holding voltage +50 mV
T2 construct: expressed in transfected cells; host or cells: Xenopus laevis oocytes co-injected with VR1 and VR3 A+B− cRNA (2.9 ng each)
T2 sequence (Q8NER1 whole entry): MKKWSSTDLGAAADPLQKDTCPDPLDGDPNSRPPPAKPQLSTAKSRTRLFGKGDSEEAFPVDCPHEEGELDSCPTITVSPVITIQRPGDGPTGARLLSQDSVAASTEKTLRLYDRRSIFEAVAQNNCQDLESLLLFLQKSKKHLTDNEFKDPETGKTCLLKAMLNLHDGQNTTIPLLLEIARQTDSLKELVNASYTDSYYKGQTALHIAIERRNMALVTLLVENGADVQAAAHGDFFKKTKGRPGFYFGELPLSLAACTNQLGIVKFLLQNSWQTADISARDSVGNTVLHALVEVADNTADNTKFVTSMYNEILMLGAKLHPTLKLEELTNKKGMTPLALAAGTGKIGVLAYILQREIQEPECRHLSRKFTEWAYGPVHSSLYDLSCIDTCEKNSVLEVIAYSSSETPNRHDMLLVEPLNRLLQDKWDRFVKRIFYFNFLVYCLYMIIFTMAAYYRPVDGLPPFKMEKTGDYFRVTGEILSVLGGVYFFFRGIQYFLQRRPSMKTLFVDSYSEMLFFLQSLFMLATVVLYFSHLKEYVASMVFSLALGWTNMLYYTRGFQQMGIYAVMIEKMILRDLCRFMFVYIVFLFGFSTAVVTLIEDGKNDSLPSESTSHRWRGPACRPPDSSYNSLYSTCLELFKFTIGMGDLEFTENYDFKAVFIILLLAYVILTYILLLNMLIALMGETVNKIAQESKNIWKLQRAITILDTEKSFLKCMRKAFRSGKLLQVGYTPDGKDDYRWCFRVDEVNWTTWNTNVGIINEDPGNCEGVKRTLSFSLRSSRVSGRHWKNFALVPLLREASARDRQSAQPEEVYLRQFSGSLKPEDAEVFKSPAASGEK
Experimental: as §2, with “Whole cell agonist-induced currents were measured 1–14 days after injection with a conventional two-electrode voltage clamp (GeneClamp500, Axon Instruments, Foster City, Calif.) using standard methods previously described and known in the art (Dascal, 1987).” left out

[3] = target: T3, human VR3 A−B− (Homo sapiens, UniProt Q9HBA0, DEL384-443/F526I); test: Two-electrode voltage clamp of Xenopus oocytes injected with VR3 A−B− cRNA, challenged with ligands; format: cell-based; conditions: VR3 A−B− 1.5 ng injected per oocyte
T3 construct: expressed in transfected cells; host or cells: Xenopus laevis oocytes injected with in vitro transcribed cRNA
T3 sequence (Q9HBA0 with tags, fused parts or gaps DEL384-443/F526I): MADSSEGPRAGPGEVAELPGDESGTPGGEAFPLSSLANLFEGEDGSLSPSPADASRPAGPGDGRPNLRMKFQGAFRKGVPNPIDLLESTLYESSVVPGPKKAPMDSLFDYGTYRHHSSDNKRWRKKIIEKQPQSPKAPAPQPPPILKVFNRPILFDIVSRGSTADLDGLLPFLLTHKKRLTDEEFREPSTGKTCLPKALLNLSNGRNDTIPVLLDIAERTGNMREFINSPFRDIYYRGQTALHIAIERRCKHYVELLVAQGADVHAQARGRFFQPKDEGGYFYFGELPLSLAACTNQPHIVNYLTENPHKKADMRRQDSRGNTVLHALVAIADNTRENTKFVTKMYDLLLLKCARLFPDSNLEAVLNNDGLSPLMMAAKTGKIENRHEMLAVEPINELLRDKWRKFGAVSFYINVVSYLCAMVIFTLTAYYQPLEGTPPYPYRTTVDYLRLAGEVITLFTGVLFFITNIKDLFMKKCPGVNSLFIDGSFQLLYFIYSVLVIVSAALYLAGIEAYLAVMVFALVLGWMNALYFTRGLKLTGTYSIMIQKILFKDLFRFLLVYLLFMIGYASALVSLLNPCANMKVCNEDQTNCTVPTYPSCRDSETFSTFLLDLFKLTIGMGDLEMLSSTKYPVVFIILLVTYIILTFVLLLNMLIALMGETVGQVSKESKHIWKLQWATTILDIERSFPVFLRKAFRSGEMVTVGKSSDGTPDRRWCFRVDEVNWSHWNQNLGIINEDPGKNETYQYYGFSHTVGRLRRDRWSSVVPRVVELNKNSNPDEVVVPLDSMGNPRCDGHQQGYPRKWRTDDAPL
Experimental: When approximately 50% of the follicular layers were removed, Stage V and VI oocytes were selected and rinsed in media consisting of 75% OR-2 and 25% ND-96. The ND-96 contained: 100 mM NaCl, 2 mM KCl, 1 mM MgCl2, 1.8 mM CaCl2, 5 mM HEPES, 2.5 mM Na pyruvate, gentamicin (50 ug/ml), adjusted to pH 7.0 with NaOH.
as §2, with “Whole cell agonist-induced currents were measured 1–14 days after injection with a conventional two-electrode voltage clamp (GeneClamp500, Axon Instruments, Foster City, Calif.) using standard methods previously described and known in the art (Dascal, 1987).” left out

[4] = target: T4, human VR3 A+B− (Homo sapiens, UniProt Q9HBA0, F526I); test: Two-electrode voltage clamp of Xenopus oocytes injected with VR3 A+B− cRNA, challenged with ligands; format: cell-based; set-up: key: NE: no effect
T4 construct: expressed in transfected cells; host or cells: Xenopus laevis oocytes injected with in vitro transcribed cRNA
T4 sequence (Q9HBA0 whole entry F526I): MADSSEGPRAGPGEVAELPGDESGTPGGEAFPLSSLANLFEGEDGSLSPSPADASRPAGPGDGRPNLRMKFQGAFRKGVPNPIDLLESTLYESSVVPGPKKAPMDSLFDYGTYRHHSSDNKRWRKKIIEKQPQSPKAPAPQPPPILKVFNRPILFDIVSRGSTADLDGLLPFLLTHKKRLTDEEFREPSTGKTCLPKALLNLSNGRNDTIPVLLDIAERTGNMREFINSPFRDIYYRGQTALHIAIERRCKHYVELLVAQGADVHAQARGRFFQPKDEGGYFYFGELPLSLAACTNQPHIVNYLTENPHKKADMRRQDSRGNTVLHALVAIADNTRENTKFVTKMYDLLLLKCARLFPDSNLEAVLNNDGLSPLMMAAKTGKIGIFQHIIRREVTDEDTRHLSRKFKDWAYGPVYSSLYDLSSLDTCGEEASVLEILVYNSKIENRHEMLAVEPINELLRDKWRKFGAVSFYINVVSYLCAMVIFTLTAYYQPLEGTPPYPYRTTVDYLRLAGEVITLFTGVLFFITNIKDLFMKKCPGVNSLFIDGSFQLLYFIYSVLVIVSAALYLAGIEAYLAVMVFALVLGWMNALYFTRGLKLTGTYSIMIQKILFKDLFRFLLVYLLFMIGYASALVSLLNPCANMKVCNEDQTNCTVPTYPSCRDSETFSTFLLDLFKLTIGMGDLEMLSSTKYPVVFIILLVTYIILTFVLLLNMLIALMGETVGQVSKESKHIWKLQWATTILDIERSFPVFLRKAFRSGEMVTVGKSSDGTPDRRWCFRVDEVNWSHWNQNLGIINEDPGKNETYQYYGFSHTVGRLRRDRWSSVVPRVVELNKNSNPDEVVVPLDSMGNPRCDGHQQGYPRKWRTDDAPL
Experimental: as §1, §2, §3

[5] = target: T5, VR2 (Rattus norvegicus, UniProt Q9WUD2); conditions: noxious temperatures (>53 deg C.), oocytes and HEK cells, cited from earlier work
T5 construct: host or cells: oocytes and HEK cells (as reported)
T5 sequence (Q9WUD2 1-761): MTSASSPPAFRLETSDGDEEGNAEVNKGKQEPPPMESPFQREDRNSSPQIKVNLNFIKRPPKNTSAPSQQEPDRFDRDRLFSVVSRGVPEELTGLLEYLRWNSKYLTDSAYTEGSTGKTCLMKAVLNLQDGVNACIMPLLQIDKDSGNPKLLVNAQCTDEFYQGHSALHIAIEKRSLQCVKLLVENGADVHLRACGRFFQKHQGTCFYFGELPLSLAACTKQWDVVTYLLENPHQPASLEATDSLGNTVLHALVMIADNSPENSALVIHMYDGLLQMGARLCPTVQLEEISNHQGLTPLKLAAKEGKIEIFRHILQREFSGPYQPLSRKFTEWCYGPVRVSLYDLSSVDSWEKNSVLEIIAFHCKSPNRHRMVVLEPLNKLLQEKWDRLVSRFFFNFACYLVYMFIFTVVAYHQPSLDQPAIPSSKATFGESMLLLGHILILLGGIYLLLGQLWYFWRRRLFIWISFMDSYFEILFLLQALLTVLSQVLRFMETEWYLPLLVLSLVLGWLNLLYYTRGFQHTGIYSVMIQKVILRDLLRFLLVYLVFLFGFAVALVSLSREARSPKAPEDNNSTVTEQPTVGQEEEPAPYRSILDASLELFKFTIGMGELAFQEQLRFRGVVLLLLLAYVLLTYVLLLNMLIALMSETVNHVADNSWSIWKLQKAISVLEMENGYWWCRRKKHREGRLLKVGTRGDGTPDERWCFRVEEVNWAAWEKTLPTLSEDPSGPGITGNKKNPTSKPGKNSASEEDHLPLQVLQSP

[6] = target: capsaicin binding site (Rattus norvegicus, UniProt O35433); conditions: cited from earlier work
Chain of capsaicin binding site (O35433 whole entry): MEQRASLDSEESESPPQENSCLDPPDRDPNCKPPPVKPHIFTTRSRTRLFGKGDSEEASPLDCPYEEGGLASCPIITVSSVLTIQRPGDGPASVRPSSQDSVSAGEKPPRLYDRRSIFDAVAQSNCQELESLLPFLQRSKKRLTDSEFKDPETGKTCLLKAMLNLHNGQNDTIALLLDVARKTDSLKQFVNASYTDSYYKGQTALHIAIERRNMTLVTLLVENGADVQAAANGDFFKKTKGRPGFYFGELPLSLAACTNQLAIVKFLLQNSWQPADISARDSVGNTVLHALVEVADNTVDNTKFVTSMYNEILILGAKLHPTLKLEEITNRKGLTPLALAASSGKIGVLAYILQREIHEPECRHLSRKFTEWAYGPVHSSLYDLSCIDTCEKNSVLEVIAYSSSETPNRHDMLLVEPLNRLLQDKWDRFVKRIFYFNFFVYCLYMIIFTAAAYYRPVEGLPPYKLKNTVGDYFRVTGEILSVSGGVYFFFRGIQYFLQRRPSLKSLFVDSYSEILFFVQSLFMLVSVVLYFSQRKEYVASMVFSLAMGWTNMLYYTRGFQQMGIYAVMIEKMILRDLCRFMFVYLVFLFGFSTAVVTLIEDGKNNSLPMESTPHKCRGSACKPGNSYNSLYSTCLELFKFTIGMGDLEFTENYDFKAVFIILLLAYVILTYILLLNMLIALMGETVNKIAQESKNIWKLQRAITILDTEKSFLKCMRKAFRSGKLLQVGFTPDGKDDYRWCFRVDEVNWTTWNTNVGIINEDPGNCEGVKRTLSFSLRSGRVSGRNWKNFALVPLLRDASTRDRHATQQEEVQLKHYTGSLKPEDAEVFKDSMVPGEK

[7] = 1 uM, VR3 A+B− 3.25–4 ng injected per oocyte (also 0.4 ng)
[8] = 10 uM, VR3 A+B− 3.25–4 ng injected per oocyte (also 0.4 ng)
[9] = 100 uM, VR3 A+B− 3.25–4 ng injected per oocyte

COc1cc(CNC(=O)CCCCC=CC(C)C)ccc1O [Capsaicin, 8-methyl-N-vanillyl-6-nonenamide]
Effect of stimulus on membrane conductance vs control oocytes ([1]; 1 uM): NE: n = 3
Response to capsaicin when VR1 is co-expressed with VR3 A+B−, compared with VR1 alone [2]: altered the responsiveness; also recorded: diminished
Effect of stimulus on membrane conductance vs control oocytes ([3]; 1 uM): NE: n = 3
Effect of stimulus on membrane conductance vs control oocytes [4, 7]: NE: n = 3 (n = 3 0.4 ng)

N.N.N.N.N.N.N.N.N.N.N.N.N.N.[Cl-].[Cl-].[Cl-].[Cl-].[Cl-].[Cl-].[O-2].[O-2].[Ru+3].[Ru+3].[Ru+4] [ruthenium red]
Block of the VR2 heat response ([5]; 10 μM ruthenium red): nearly completely blocked

CCCCC/C=C\C/C=C\C/C=C\C/C=C\CCCC(=O)O [Arachadonic acid]
Effect of stimulus on membrane conductance vs control oocytes ([3]; 10 uM): NE: n = 3

CCCCCCCC/C=C\CCCCCCCC(=O)NCc1ccc(O)c(OC)c1 [Olvanil]
Effect of stimulus on membrane conductance vs control oocytes ([1]; 10 uM): NE: n = 3
Effect of stimulus on membrane conductance vs control oocytes ([3]; 10 uM): NE: n = 3
Effect of stimulus on membrane conductance vs control oocytes [4, 8]: NE: n = 3 (n = 1 0.4 ng)

NCCc1ccccc1 [β-phenylethylamine]
Effect of stimulus on membrane conductance vs control oocytes [4, 9]: NE: n = 2

CCCCC[C@H](O)CC(=O)CCc1ccc(O)c(OC)c1 [Gingerol]
Effect of stimulus on membrane conductance vs control oocytes ([1]; 10 uM): NE: n = 3
Effect of stimulus on membrane conductance vs control oocytes ([3]; 10 uM): NE: n = 3
Effect of stimulus on membrane conductance vs control oocytes [4, 8]: NE: n = 3 (n = 1 0.4 ng)

C=CCc1ccc(O)c(OC)c1 [Eugenol]
Effect of stimulus on membrane conductance vs control oocytes ([1]; 10 uM): NE: n = 3
Effect of stimulus on membrane conductance vs control oocytes ([3]; 10 uM): NE: n = 3
Effect of stimulus on membrane conductance vs control oocytes [4, 8]: NE: n = 3 (n = 3 0.4 ng)

Oc1cc2c(cc1O)CN(C(=S)NCCc1ccc(Cl)cc1)CCC2 [CPZ, capsazepine]
Sensitivity of the VR2 heat response to CPZ [5]: not sensitive

CCCCC/C=C\C/C=C\C/C=C\C/C=C\CCCC(=O)NCCO [Anandamide]
Effect of stimulus on membrane conductance vs control oocytes ([3]; 1.15 uM): NE: n = 1
Effect of stimulus on membrane conductance vs control oocytes ([4]; 1.15 uM, VR3 A+B− 0.4 ng injected): NE: n = 3 (0.4 ng

O=C(O)CCCO [γ-hydroxybutyrate]
Effect of stimulus on membrane conductance vs control oocytes [4, 9]: NE: n = 2

C=C(C)[C@]12C[C@@H](C)[C@@]34O[C@](Cc5ccccc5)(O[C@@H]1[C@@H]3C=C(COC(=O)Cc1ccc(O)c(OC)c1)C[C@]1(O)C(=O)C(C)=C[C@@H]41)O2 [Resiniferatoxin, resiniferatoxin]
Effect of stimulus on membrane conductance vs control oocytes ([1]; 1 uM): NE: n = 3
Binding affinity at the capsaicin binding site [6]: nanomolar affinity
Effect of stimulus on membrane conductance vs control oocytes ([3]; 1 uM): NE: n = 3
Effect of stimulus on membrane conductance vs control oocytes [4, 7]: NE: n = 3 (n = 1 0.4 ng)

COc1ccccc1O [Guiaicol]
Effect of stimulus on membrane conductance vs control oocytes ([1]; 10 uM): NE: n = 3
Effect of stimulus on membrane conductance vs control oocytes ([3]; 10 uM): NE: n = 3
Effect of stimulus on membrane conductance vs control oocytes [4, 8]: NE: n = 3 (n = 1 0.4 ng)
